Data taken from patent US8435982B2, “Pharmaceutical formulation containing lipophilic drugs and milk as a solubilizing/dispensing agent and method for the preparation thereof” (Pharmathen S.A., priority 2007, dated 2013).
In brackets after ≈: the same amount, converted by molar mass. Like-named read-outs stand apart in the source and are kept apart here. Values belong to the compound of their own block, whether it stands above or below them.

Columns and labels:
Format in all cases: physicochemical
[1] = Stability studies of NSAID alkaline buffer solutions; conditions: for total amount of drug compared to the initial value: alkaline buffer solution pH 12
Procedure: The drugs were dissolved in the following buffers: 0.2 M NaH2PO4—NaOH pH 12 and 0.05 M glycine-NaOH pH 12. A weighted amount of drug, corresponding to its therapeutic dose, was dissolved in the appropriate volume of alkaline buffer. […] Also, the pH values of the aqueous alkaline NSAIDs solutions were measured before storage and at the predetermined time points.

[2] = Solubility studies in alkaline buffers; conditions: for solubility at 48 h: 25 °C, thermodynamic from solid
Procedure: Solubility studies were performed at 25° C. in various buffers. More specifically:
An excess quantity of mefenamic acid powder was added to a 25 ml flask containing 15 ml of the appropriate aqueous medium. The flasks were placed in a thermostated water bath at 25° C. under constant shaking rate of 100 rpm for 48 h. The filtrated samples of mefenamic acid were monitored at 285 nm. Calibration curves were performed for every buffer, prior to measurements.

[3] = Final pH of drug-buffer solution solubilized/dispersed in milk
Procedure: The appropriate buffer was added in milk gradually under magnetic stirring and the increase of the milk pH was measured. […] Subsequently, experiments were performed in order to evaluate if an active ingredient initially dissolved in buffer, when solubilized/dispersed in milk, is suitable for oral administration. […] The buffer volume was increased by 0.5 ml each time and the pH values after each addition were measured.

SMILES: CN1C(C(=O)Nc2ccccn2)=C(O)c2sccc2S1(=O)=O [Tenoxicam]
solubility at 48 h ([2]; phosphate buffer, aqueous buffer, buffer 0.1M NaH2PO4/NaOH at nominal pH=12, read-out: solubility): 14.3 mg/mL (≈ 42.5 mM)

SMILES: Cc1cnc(NC(=O)C2=C(O)c3ccccc3S(=O)(=O)N2C)s1 [Meloxicam]
solubility at 48 h ([2]; aqueous buffer, buffer glycine/NaOH at nominal pH=12, read-out: solubility): 15.4 mg/mL (≈ 43.8 mM)

Continued, values first:

total amount of drug compared to the initial value ([1]; accelerated stability studies, 30° C.): 99.7-100.2%
total amount of drug compared to the initial value ([1]; accelerated stability studies, 40° C.): 101-118%
change of pH (compared to the initial value) ([1]; both long term and accelerated studies, all three temperatures): 98.8-100.2%
% change of drug amount ([1]; long term and accelerated stability studies): within acceptable ranges
total amount of drug compared to the initial value ([1]; long term studies at 25° C. (3 and 6 months)): 96.5-107%
SMILES: CS(=O)(=O)Nc1ccc([N+](=O)[O-])cc1Oc1ccccc1 [Nimesulide]

solubility at 48 h ([2]; pH 12, aqueous buffer): 35.1 mg/mL (≈ 134 mM)
Final pH ([3]; dose 100 mg, 10 mg/mL, 10 mL NaH2PO4/NaOH 0.2M (nominal pH=12) in 150 ml […] fat long duration milk (tolfenamic acid)): 7.42
Final pH ([3]; dose 100 mg, 20 mg/mL, 5 mL NaH2PO4/NaOH 0.1M (nominal pH=12) in 150 ml […] fat long duration milk): 6.75
Final pH ([3]; dose 100 mg, 20 mg/mL, 5 mL NaH2PO4/NaOH 0.2M (nominal pH=12) in 150 ml […] fat long duration milk): 7.03
Final pH ([3]; dose 200 mg, 20 mg/mL, 10 mL NaH2PO4/NaOH 0.2M (nominal pH=12) in 150 ml […] fat long duration milk): 7.34
Final pH ([3]; dose 300 mg, 25 mg/mL, 12 mL NaH2PO4/NaOH 0.2M (nominal pH=12) in 150 ml […] fat long duration milk): 7.40
SMILES: Cc1c(Cl)cccc1Nc1ccccc1C(=O)O [Tolfenamic acid]

solubility (FIG. 1) ([2]; 25° C., nominal pH range of 11-12, 0.2M NaH2PO4—NaOH buffer): greatly enhanced
Final pH ([3]; dose 50 mg, 10 mg/mL, 5 mL NaH2PO4/NaOH 0.2M (nominal pH=12) in 150 ml […] fat long duration milk): 6.81
Final pH ([3]; dose 100 mg, 10 mg/mL, 10 mL NaH2PO4/NaOH 0.2M (nominal pH=12) in 150 ml […] fat long duration milk): 7.01
Final pH ([3]; dose 500 mg, 25 mg/mL, 20 mL NaH2PO4/NaOH 0.2M (nominal pH=12) in 150 ml […] fat long duration milk): 7.73
Final pH ([3]; dose 500 mg, 40 mg/mL, 12.5 mL NaH2PO4/NaOH 0.2M (nominal pH=12) in 150 ml […] fat long duration milk): 7.35
SMILES: Cc1cccc(Nc2ccccc2C(=O)O)c1C [Mefenamic acid]
